Measurements as given in article PMC5620571, “Pharmacokinetic Analysis of an Oral Multicomponent Joint Dietary Supplement (Phycox®) in Dogs” (Pharmaceutics, 2017).
Entries after “also recorded” stand apart in the source; their conditions may differ. Where a name gives a salt, the structure may show the parent alone. Read-outs that look alike come from different tables or passages of the source.

How the values were obtained:
[1] = Single-dose oral pharmacokinetic study of one Phycox soft chew in dogs (serum, LC-MS/MS, non-compartmental analysis); assay type: in vivo, dog (female Beagle); settings: for serum concentration of polyphenol (aglycone or glucuronidated metabolite): single PO Phycox soft chew (36.1 μg ±hesperetin, 0.554 μg trans-resveratrol, 2.88 μg ±naringenin), serum 0-24 h; for half-life: po, 450 mg
Description: The animal research protocol used in this study was reviewed and approved by the Institutional Animal Care and Use Committee at Washington State University (protocol #04224-011, approved 21 December 2014). Four commercially available purpose-bred intact female research Beagles from an Association for Assessment and Accreditation of Laboratory Animal Care (AALAC) certified source were used for the study. All dogs were 2 years of age at the onset of the study with a weight of 9.25 ± 0.81 kg (mean ± SD; range 8.4–10.2 kg). Animals were housed in AALAC approved facilities for animal research for 80 days acclimating to their environment prior to the initiation of the study. All dogs were fed a standard canine formulation (Proactive Health™ Adult Minichunks, IAMS, Mason, OH, USA) ration twice daily and housed in a temperature and humidity controlled room; 21 °C and 30%, respectively, while under 12 h light cycle conditions. The dogs underwent daily examinations and weekly body weight assessments. All animals were also given daily enrichment activities before, during, and after the study. At study termination all animals were transferred to an unrelated study. Dogs were fasted 12 h prior to the study but provided free access to water. Each subject was administered a single Phycox® soft chew and a series of blood samples (3 mL) were collected at 0, 1, 2, 4, 6, 8, 12 and 24 h post-dose via saphenous or cephalic vein depending on the temperament of the animals. Animals were fed after 2 h post-dose. Following centrifugation of the blood samples, serum was removed and stored at −80 °C until analyzed. One hundred microliters of serum from each PK sample was placed into a microcentrifuge tube. To all samples, except 0 h, 40 μL of 0.1 μg/mL internal standard stock solution (caffeine) was added along with 1.0 mL of cold acetonitrile (−20 °C) to precipitate proteins. The samples were vortexed and centrifuged at 20,160× g for 5 min. […] The residues were reconstituted with 50 μL of starting mobile phase (0.05% aqueous formic acid), vortexed and centrifuged at 20,160× g for 5 min. The supernatants were transferred to 30 kDa centrifugal filter tubes and centrifuged for 30 min at 9000× g. The filtrate was transferred to HPLC vials and 5 μL were injected into the LC-MS/MS system. The PK serum samples were separated into two sets of microcentrifuge tubes (total and aglycone) with 100 μL of serum in each. To the total samples, 20 μL β-glucuronidase (500 U/mL in 6.8 pH phosphate buffer) was added and incubated for 2 h at 37 °C [28]. To all samples except 0 h, 20 μL of 10 μg/mL internal standard stock solution (±liquiritigenin) was added along with 1.0 mL of cold acetonitrile (−20 °C) to precipitate proteins. […] The residues were reconstituted with 50 μL of mobile phase (50% aqueous methanol with 0.1% formic acid), vortexed and centrifuged at 20,160× g for 5 min. The supernatants were transferred to 30 kDa centrifugal filter tubes and centrifuged for 30 min at 9000× g. The filtrate was transferred to HPLC vials and 5 μL were injected into the LC-MS/MS system. PK samples were analyzed using Phoenix WinNonlin software (ver. 6.3; Certara, St. Louis, MO, USA) to derive the pharmacokinetic parameters for each individual dog and expressed as mean ± SEM. A non-compartmental analysis was used to calculate the PK parameters including area under the curve (AUC0–∞), the peak serum concentration (Cmax), time to reach peak serum concentration (Tmax), the apparent volume of distribution (Vd/F), the elimination half-life (t1/2), and the apparent clearance (CL/F). The elimination rate constant (KE), was estimated by log-linear regression of the serum concentrations. The AUC0–∞ was calculated using the long-linear trapezoidal rule for data from time of dosing to the last measured concentration plus the quotient of the last measured concentration divided by KE/2.303. The concentration time points of the animals were subjected to non-compartmental modeling.

[2] = set-up: method as in PMID 19647388; settings: Beagle dogs; cited from earlier work
[3] = set-up: method as in PMID 26205697; settings: cited from earlier work
[4] = set-up: method as in PMID 12214321; settings: cited from earlier work
[5] = Oral pharmacokinetics of glucosamine HCl in Beagle dogs (Adebowale et al.); assay type: in vivo; settings: longer than in this study (Phycox soft chew, 450 mg)
Procedure: Two previous studies have evaluated the oral pharmacokinetics of glucosamine HCl in Beagle dogs. Adebowale et al. administered 1500–2000 mg of glucosamine HCl to eight dogs and used non-compartmental modeling to derive PK parameters. […] The serum-concentration time curve reported in Adebowale et al. was similar in shape to the curve reported in this study but the half-lives were reported to be between 1.52–2.4 h, which is […] than the half-live reported in this study. […] The method employed by the study utilized a validated HPLC method with a limit of quantification of 1.25 μg/mL and involved pre-column derivatization. The amount of glucosamine administered in the present study was 3.3 to 4.4 less than those administered in the study by Adebowale et al. but the method employed in this study was 250 times more sensitive allowing for detection of much smaller concentrations of glucosamine. Various LC-MS-MS assays are validated in the literature across various fluids and species. […] The second report of glucosamine HCl PK in dogs administered 1000 mg of glucosamine HCl to four male dogs using two commercially available chewable tablet formulations. […] The method employed by the study used a modified HPLC method with a limit of quantification of 0.05 μg/mL (10 fold higher limit of quantitation than the method presented in this study) and involved pre-column derivatization. […]

[6] = female, Beagle, dog, glucosamine HCl 450 mg in one Phycox soft chew PO, fasted dogs, serum, n = 4, mean ± SEM
[7] = 1000 mg glucosamine HCl, four male dogs, two commercially available chewable tablet formulations

| Structure (SMILES) | serum concentration of polyphenol (aglycone or glucuronidated metabolite) ([1]; dogs, LOQ 5 ng/mL) | absorption of glucosamine co-administered with chitosan compared to glucosamine alone [2] | half-life ([1]; female, Beagle, dog, serum, glucosamine HCl 450 mg in one Phycox soft chew PO, dogs, serum, read-out: apparent t1/2) [min] | half-life ([1]; female, Beagle, dog, serum, glucosamine HCl 450 mg in one Phycox soft chew PO, fasted dogs, serum, n = 4, mean ± SEM, read-out: t1/2 (converted)) [min] | AUC(0-inf) [1, 6] [ng·h/mL] | CL/F [1, 6] [mL/min/kg] | Cmax [1, 6] [ng/mL] | Tmax [1, 6] [min] | Vd/F [1, 6] [L/kg] | time post-dose up to which glucosamine was detected in serum ([1]; single PO Phycox soft chew, dogs, samples collected for 24 h, LOQ 5 ng/mL) | Cmax [3, 7] [ng/mL] | Tmax [3, 7] [min] | detection of glucosamine ([3]; at 12 h post-dose, HPLC, LOQ 0.05 μg/mL) | half-lives ([4]; 1500–2000 mg glucosamine HCl oral, eight Beagle dogs) [h] | detection of glucosamine ([4]; after 4 h post-dose, HPLC, LOQ 1.25 μg/mL) | half-life of Adebowale et al. relative to the half-life of this study [5] | serum concentration of polyphenol (aglycone or glucuronidated metabolite) ([1]; dogs, LOQ 5 ng/mL, listed as ±Hesperetin) |
| --- | --- | --- | --- | --- | --- | --- | --- | --- | --- | --- | --- | --- | --- | --- | --- | --- | --- |
| Oc1ccc(/C=C/c2cc(O)cc(O)c2)cc1 [trans-resveratrol] | not detected at quantifiable concentrations; also recorded: no compounds were detected at quantifiable concentrations | – | – | – | – | – | – | – | – | – | – | – | – | – | – | – | – |
| N[C@H]1C(O)O[C@H](CO)[C@@H](O)[C@@H]1O (stereo partly drawn) [glucosamine, glucosamine hydrochloride] | – | increased | ~35 | 35 ± 2.04 | 20400 ± 2340 | 42.7 | 9690 ± 1140 | 120 | 2.1 ± 0.254 | up to 8 h | 1800 to 2600 | 252 to 300 | not able to detect | 1.52 to 2.4 | not able to detect | 3–5 times | – |
| COc1ccc(C2CC(=O)c3c(O)cc(O)cc3O2)cc1O (racemic) [±hesperetin] | no compounds were detected at quantifiable concentrations | – | – | – | – | – | – | – | – | – | – | – | – | – | – | – | not detected at quantifiable concentrations |
